Usually IC50 stands for the concentration at which inhibition is half-maximal. High values mean weaker potency, low ones greater potency.

Holding throughout (assay): kinase inhibition assay (method cited to earlier paper)
Type in all cases: biochemical

For one assay, the target named is DDR1 (Homo sapiens, UniProt Q08345).
Another assay concerns the target T1, JAK3 (Homo sapiens, UniProt P52333).
T1 sequence (P52333 1-1124): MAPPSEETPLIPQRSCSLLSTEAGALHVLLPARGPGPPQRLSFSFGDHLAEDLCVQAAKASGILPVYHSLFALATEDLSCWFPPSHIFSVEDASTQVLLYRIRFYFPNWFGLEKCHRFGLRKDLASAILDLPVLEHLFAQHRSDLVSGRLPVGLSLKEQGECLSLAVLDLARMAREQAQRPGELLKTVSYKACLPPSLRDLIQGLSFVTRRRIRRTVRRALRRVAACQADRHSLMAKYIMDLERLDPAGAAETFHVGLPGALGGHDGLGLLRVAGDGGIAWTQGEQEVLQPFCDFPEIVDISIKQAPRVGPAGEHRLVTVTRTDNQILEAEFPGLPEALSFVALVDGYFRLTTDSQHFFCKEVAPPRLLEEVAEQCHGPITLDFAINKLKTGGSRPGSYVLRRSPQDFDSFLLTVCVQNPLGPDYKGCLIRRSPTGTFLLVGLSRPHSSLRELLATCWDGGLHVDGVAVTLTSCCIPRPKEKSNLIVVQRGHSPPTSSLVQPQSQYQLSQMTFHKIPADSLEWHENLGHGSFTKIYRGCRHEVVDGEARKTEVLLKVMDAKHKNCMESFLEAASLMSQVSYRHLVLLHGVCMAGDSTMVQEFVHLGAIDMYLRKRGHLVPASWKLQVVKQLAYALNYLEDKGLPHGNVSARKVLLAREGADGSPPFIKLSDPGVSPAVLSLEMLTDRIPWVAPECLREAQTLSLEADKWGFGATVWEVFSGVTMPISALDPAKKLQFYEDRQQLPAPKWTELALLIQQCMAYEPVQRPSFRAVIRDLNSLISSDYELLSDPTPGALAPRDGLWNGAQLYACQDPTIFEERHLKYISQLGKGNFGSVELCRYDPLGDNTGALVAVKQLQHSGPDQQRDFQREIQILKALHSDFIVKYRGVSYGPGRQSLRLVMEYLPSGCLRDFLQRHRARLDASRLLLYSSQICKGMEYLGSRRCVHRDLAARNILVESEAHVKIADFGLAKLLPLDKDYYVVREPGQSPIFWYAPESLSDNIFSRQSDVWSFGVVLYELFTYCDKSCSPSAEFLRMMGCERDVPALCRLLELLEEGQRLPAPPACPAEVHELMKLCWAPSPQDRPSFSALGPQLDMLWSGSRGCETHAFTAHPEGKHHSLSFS

The target in the next assay is ROCK2 (Homo sapiens, UniProt O75116).

The structures appear in SMILES notation.

Chain of DDR1 (Q08345 19-913): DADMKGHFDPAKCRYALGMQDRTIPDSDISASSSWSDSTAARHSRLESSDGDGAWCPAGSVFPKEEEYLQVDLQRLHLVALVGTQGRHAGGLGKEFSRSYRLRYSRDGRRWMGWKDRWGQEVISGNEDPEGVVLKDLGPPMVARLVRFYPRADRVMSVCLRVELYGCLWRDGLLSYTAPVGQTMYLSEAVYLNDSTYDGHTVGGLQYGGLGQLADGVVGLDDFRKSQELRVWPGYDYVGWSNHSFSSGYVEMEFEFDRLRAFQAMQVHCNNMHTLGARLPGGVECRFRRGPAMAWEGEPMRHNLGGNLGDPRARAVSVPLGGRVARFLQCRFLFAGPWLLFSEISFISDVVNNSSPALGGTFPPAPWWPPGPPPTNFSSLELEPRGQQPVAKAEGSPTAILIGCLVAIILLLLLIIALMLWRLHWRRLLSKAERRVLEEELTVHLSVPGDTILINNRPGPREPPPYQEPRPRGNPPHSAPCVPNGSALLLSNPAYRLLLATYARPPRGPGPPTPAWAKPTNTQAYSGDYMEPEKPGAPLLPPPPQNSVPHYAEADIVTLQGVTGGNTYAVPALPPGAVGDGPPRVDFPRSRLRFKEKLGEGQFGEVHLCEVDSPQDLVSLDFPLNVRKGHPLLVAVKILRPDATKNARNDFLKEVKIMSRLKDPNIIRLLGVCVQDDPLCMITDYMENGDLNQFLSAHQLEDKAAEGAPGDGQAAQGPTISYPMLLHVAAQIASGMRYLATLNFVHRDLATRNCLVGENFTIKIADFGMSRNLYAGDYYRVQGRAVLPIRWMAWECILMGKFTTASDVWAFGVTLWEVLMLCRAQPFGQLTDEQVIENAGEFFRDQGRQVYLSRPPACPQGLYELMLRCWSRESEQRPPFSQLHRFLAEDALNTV
Chain of ROCK2 (O75116 whole entry): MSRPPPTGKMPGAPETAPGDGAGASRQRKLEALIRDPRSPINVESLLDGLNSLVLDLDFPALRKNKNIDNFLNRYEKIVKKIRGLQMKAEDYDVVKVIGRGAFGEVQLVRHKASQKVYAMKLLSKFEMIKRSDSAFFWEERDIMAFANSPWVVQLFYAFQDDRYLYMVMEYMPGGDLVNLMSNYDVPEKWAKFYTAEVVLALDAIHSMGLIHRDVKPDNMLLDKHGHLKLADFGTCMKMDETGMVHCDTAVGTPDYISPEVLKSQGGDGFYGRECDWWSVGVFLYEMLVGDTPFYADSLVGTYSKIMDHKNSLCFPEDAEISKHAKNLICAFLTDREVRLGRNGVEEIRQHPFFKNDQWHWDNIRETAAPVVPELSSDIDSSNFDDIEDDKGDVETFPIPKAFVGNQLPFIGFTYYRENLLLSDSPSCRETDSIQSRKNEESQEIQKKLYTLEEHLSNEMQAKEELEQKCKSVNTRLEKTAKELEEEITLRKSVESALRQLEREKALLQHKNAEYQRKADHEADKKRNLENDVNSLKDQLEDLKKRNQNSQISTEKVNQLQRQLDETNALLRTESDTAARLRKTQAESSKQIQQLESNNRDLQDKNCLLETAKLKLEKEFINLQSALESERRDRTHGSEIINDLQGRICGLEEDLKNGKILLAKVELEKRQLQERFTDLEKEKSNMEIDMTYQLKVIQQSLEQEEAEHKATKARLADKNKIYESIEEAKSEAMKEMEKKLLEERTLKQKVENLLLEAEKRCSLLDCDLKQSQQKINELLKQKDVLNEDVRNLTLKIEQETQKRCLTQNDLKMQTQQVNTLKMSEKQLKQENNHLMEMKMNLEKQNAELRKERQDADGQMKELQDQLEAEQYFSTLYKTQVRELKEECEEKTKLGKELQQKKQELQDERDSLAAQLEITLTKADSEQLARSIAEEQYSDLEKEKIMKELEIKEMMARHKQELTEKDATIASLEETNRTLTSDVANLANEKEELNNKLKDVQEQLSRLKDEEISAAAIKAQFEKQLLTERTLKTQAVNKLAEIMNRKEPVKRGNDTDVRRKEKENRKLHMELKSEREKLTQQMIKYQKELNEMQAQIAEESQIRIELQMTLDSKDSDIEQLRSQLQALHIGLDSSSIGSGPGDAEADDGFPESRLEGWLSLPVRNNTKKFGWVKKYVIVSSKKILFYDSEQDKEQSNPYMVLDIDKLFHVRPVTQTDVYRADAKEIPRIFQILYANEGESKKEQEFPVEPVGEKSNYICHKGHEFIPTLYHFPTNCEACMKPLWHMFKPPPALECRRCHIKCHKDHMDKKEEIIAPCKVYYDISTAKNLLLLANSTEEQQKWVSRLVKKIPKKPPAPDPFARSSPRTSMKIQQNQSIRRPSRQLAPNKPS

Regarding `OC[C@@H]1OC[C@@H](c2ccc(O)c(O)c2)c2cc(O)c(O)cc21` (stereo in doubt) [(−)-9, (−)-Periplanol A], the concentration for half-maximal inhibition (IC50) against DDR1 was determined as 22.9 µM; against JAK3 it was 4.59 µM.

For the compound `Cc1ccc(O)c(-c2cc(CC(=O)O)ccc2O)c1` [compound 6, Plancyin F], the IC50 turned out to be 9.17 µM against JAK3 and 27.1 µM on ROCK2.

Turning to `OC[C@H]1OC[C@H](c2ccc(O)c(O)c2)c2cc(O)c(O)cc21` (stereo in doubt) [(+)-9, (+)-Periplanol A], the IC50 stood at 23.9 µM against DDR1 and 9.35 µM against JAK3.
